Data on two molecules can be found in US9662351B2, “Plasma and brain pharmacokinetics of previously unexplored lithium salts” (University of South Florida, priority 2014, dated 2017).

Bounds are passed on as bounds.

For data set [1] the following is noted: rat.
Method: Male Sprague Dawley rats weighing 200-250 grams were dosed via oral gavage with 4 meq. […] Blood and brain were collected and lithium was measured using atomic absorption spectroscopy (AAS).
Male Sprague Dawley rats weighing 200-250 grams were purchased from Harlan (Harlan Sprague Dawley Inc., Indianapolis, Ind.). […] The rats were allowed to acclimate for a period of one week before any experiments are carried out. […] They were allowed free access to food and water throughout the experiment. […] Animals in each treatment group were euthanized at 2, 24, 48, and 72 hours (n=3 per time point per lithium salt) and blood was collected by cardiac puncture and carefully perfused with a pressure controlled pump to maintain microvasculature integrity before removing brain tissue. Blood was centrifuged at 1600×g at room temperature for 10 minutes and plasma was separated. A 500 mL aliquot was diluted 10 fold in a 5% TCA and 10% isopropyl alcohol (IPA) solution, vortexed and allowed to sit for 10 minutes in order to precipitate proteins. These aliquots were centrifuged at 3000×g for 30 minutes and the supernatant was transferred to clean tubes prior to measuring lithium content using atomic absorption spectroscopy (AAS). Brains were rinsed with PBS, weighed, and an equal volume of concentrated HNO3 was added. The brains were heated in this nitric acid solution for 1 hour, allowed to cool to room temperature, then centrifuged at 3000×g for 1 hour. The supernatant was removed and diluted 10 fold in 10% IPA prior to measuring lithium content using AAS (Shimadzu AA-6200). Peak height measurements were carried out referring to values obtained for standards of known concentrations. […] Two tailed t-tests were used to assess the statistical significance at each time point for the pharmacokinetic curves. The criterion for rejection of the null hypothesis was P<0.05.
For data set [2] the following is noted: rat, same protocol; previously reported [7]; peaks rapidly; cited from earlier work.

As for `O=C([O-])c1ccccc1O.[Li+]` [Lithium Salicylate, Lithium salicylate], in data set [1] (brain lithium, 0-72 h, oral gavage 4 meq. kg^−1 elemental lithium, mean±SEM), the “AUC(0-72)” value stood at 153.1 ± 7.66 µg/g. The “brain lithium exposure compared with other lithium salts (e.g. lithium lactate)” value in data set [1] (brain, oral) is “better brain exposure”. The “plasma lithium exposure compared with other lithium salts (e.g. lithium lactate)” value in data set [1] (plasma, oral) is “comparatively lower plasma lithium exposure”.
Turning to `O=C([O-])[O-].[Li+].[Li+]` [lithium carbonate], the “time to elimination of lithium” value in data set [2] is no more than 48 h.
